Assay [1] deals with T1, hMC4R (Homo sapiens, UniProt P32245). The assay is described as follows: Lanthanide-based competitive binding assay.
Assay [2] has as its target T1, hMC4R. Conditions: binding to hMC4R, MSH(7) ligands; cited from earlier work.

Like-named read-outs stand apart in the source and are kept apart here. Bridge positions count the residues as written; N and C are the ends. Square brackets hold non-standard residues; d marks the D form. Peptide text beside a SMILES is read from it. d2Nal = N[C@H](Cc1ccc2ccccc2c1)C(=O)O; Nle = CCCC[C@H](N)C(=O)O

T1 sequence (P32245 whole entry): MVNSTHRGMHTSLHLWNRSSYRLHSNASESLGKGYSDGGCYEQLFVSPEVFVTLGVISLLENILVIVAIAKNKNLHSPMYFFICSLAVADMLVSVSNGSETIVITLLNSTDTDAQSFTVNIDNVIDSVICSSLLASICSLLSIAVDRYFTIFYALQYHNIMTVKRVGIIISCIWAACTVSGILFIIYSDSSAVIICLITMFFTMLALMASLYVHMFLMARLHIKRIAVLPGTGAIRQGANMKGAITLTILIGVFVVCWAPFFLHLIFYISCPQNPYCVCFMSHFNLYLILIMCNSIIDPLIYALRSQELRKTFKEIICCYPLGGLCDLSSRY

Compound `CCCC[C@H](NC(=O)COCC(=O)NCCCOCCOCCOCCCNC(=O)CNC(=O)[C@@H]1CCCN1C(=O)CNC(=O)[C@@H]1CCCN1C(=O)CNC(=O)[C@@H]1CCCN1C(=O)COCC(=O)NCCCOCCOCCOCCCNC(=O)[C@H](Cc1c[nH]c2ccccc12)NC(=O)[C@H](CCCNC(=N)N)NC(=O)[C@@H](Cc1ccccc1)NC(=O)[C@H](Cc1c[nH]cn1)NC(=O)[C@H](CCC(=O)O)NC(=O)[C@H](CCCC)NC(=O)[C@H](CO)NC(C)=O)C(=O)N[C@H]1CC(=O)NCCCC[C@@H](C(N)=O)NC(=O)[C@H](Cc2c[nH]c3ccccc23)NC(=O)[C@H](CCCNC(=N)N)NC(=O)[C@@H](Cc2ccc3ccccc3c2)NC(=O)[C@H](Cc2c[nH]cn2)NC1=O` [compound 16, Ac-MSH(7)-PEGO-(Pro-Gly)3-PEGO-SHU9119-NH2] had an EC50 on hMC4R [1] (SEM) of 0.00138 µM.
Still for that read-out and setting: the same measure for `CCCC[C@H](NC(=O)CNC(=O)[C@@H]1CCCN1C(=O)CNC(=O)[C@@H]1CCCN1C(=O)CNC(=O)[C@@H]1CCCN1C(=O)CNC(=O)[C@@H]1CCCN1C(=O)CNC(=O)[C@@H]1CCCN1C(=O)CNC(=O)[C@@H]1CCCN1C(=O)CNC(=O)[C@@H]1CCCN1C(=O)CNC(=O)[C@@H]1CCCN1C(=O)CNC(=O)[C@@H]1CCCN1C(=O)CNC(=O)[C@@H]1CCCN1C(=O)CNC(=O)[C@@H]1CCCN1C(=O)CNC(=O)[C@@H]1CCCN1C(=O)[C@H](Cc1c[nH]c2ccccc12)NC(=O)[C@H](CCCNC(=N)N)NC(=O)[C@@H](Cc1ccccc1)NC(=O)[C@H](Cc1c[nH]cn1)NC(=O)[C@H](CCC(=O)O)NC(=O)[C@H](CCCC)NC(=O)[C@H](CO)NC(C)=O)C(=O)N[C@H]1CC(=O)NCCCC[C@@H](C(N)=O)NC(=O)[C@H](Cc2c[nH]c3ccccc23)NC(=O)[C@H](CCCNC(=N)N)NC(=O)[C@@H](Cc2ccc3ccccc3c2)NC(=O)[C@H](Cc2c[nH]cn2)NC1=O` [compound 15, Ac-MSH(7)-(Pro-Gly)12-SHU9119-NH2] (Ac-S[Nle]EH[dF]RWPGPGPGPGPGPGPGPGPGPGPGPG[Nle]DH[d2Nal]RWK-NH2; lactam 33-38): 0.00158 µM; for `CCCC[C@H](NC(=O)COCC(=O)NCCCOCCOCCOCCCNC(=O)COCC(=O)NCCCOCCOCCOCCCNC(=O)[C@H](Cc1c[nH]c2ccccc12)NC(=O)[C@H](CCCNC(=N)N)NC(=O)[C@@H](Cc1ccccc1)NC(=O)[C@H](Cc1c[nH]cn1)NC(=O)[C@H](CCC(=O)O)NC(=O)[C@H](CCCC)NC(=O)[C@H](CO)NC(C)=O)C(=O)N[C@H]1CC(=O)NCCCC[C@@H](C(N)=O)NC(=O)[C@H](Cc2c[nH]c3ccccc23)NC(=O)[C@H](CCCNC(=N)N)NC(=O)[C@@H](Cc2ccc3ccccc3c2)NC(=O)[C@H](Cc2c[nH]cn2)NC1=O` [compound 18, Ac-MSH(7)-PEGO-PEGO-SHU9119-NH2]: 0.0017 µM.
Consider “Ac-(Pro-Gly)12- MSH(7)-NH2 (Ac-PGPGPGPGPGPGPGPGPGPGPGPGS[Nle]EH[dF]RW-NH2; SMILES CCCC[C@H](NC(=O)[C@H](CO)NC(=O)CNC(=O)[C@@H]1CCCN1C(=O)CNC(=O)[C@@H]1CCCN1C(=O)CNC(=O)[C@@H]1CCCN1C(=O)CNC(=O)[C@@H]1CCCN1C(=O)CNC(=O)[C@@H]1CCCN1C(=O)CNC(=O)[C@@H]1CCCN1C(=O)CNC(=O)[C@@H]1CCCN1C(=O)CNC(=O)[C@@H]1CCCN1C(=O)CNC(=O)[C@@H]1CCCN1C(=O)CNC(=O)[C@@H]1CCCN1C(=O)CNC(=O)[C@@H]1CCCN1C(=O)CNC(=O)[C@@H]1CCCN1C(C)=O)C(=O)N[C@@H](CCC(=O)O)C(=O)N[C@@H](Cc1c[nH]cn1)C(=O)N[C@H](Cc1ccccc1)C(=O)N[C@@H](CCCNC(=N)N)C(=O)N[C@@H](Cc1c[nH]c2ccccc12)C(N)=O) [compound 21]”, for which the EC50 with hMC4R [2] is 0.188 ± 0.025 µM.
Take “Ac-(Pro-Gly)9- MSH(7)-NH2 (Ac-PGPGPGPGPGPGPGPGPGS[Nle]EH[dF]RW-NH2; SMILES CCCC[C@H](NC(=O)[C@H](CO)NC(=O)CNC(=O)[C@@H]1CCCN1C(=O)CNC(=O)[C@@H]1CCCN1C(=O)CNC(=O)[C@@H]1CCCN1C(=O)CNC(=O)[C@@H]1CCCN1C(=O)CNC(=O)[C@@H]1CCCN1C(=O)CNC(=O)[C@@H]1CCCN1C(=O)CNC(=O)[C@@H]1CCCN1C(=O)CNC(=O)[C@@H]1CCCN1C(=O)CNC(=O)[C@@H]1CCCN1C(C)=O)C(=O)N[C@@H](CCC(=O)O)C(=O)N[C@@H](Cc1c[nH]cn1)C(=O)N[C@H](Cc1ccccc1)C(=O)N[C@@H](CCCNC(=N)N)C(=O)N[C@@H](Cc1c[nH]c2ccccc12)C(N)=O) [compound 20]”: the 50% effective concentration (EC50) in the assay with hMC4R [2] was 0.236 ± 0.024 µM.
“Ac-MSH(7)-(Pro-Gly)6- MSH(7)-NH2 (Ac-S[Nle]EH[dF]RWPGPGPGPGPGPGS[Nle]EH[dF]RW-NH2; SMILES CCCC[C@H](NC(=O)[C@H](CO)NC(C)=O)C(=O)N[C@@H](CCC(=O)O)C(=O)N[C@@H](Cc1c[nH]cn1)C(=O)N[C@H](Cc1ccccc1)C(=O)N[C@@H](CCCNC(=N)N)C(=O)N[C@@H](Cc1c[nH]c2ccccc12)C(=O)N1CCC[C@H]1C(=O)NCC(=O)N1CCC[C@H]1C(=O)NCC(=O)N1CCC[C@H]1C(=O)NCC(=O)N1CCC[C@H]1C(=O)NCC(=O)N1CCC[C@H]1C(=O)NCC(=O)N1CCC[C@H]1C(=O)NCC(=O)N[C@@H](CO)C(=O)N[C@@H](CCCC)C(=O)N[C@@H](CCC(=O)O)C(=O)N[C@@H](Cc1c[nH]cn1)C(=O)N[C@H](Cc1ccccc1)C(=O)N[C@@H](CCCNC(=N)N)C(=O)N[C@@H](Cc1c[nH]c2ccccc12)C(N)=O) [compound 22]”: in the assay with hMC4R [2], the EC50 is 0.011 ± 0.002 µM.
Take “Ac-(Pro-Gly)6- MSH(7)-NH2 (Ac-PGPGPGPGPGPGS[Nle]EH[dF]RW-NH2; SMILES CCCC[C@H](NC(=O)[C@H](CO)NC(=O)CNC(=O)[C@@H]1CCCN1C(=O)CNC(=O)[C@@H]1CCCN1C(=O)CNC(=O)[C@@H]1CCCN1C(=O)CNC(=O)[C@@H]1CCCN1C(=O)CNC(=O)[C@@H]1CCCN1C(=O)CNC(=O)[C@@H]1CCCN1C(C)=O)C(=O)N[C@@H](CCC(=O)O)C(=O)N[C@@H](Cc1c[nH]cn1)C(=O)N[C@H](Cc1ccccc1)C(=O)N[C@@H](CCCNC(=N)N)C(=O)N[C@@H](Cc1c[nH]c2ccccc12)C(N)=O) [compound 19]”: the EC50 with hMC4R [2] was 0.082 ± 0.012 µM.
For `CCCC[C@H](NC(=O)[C@H](CO)NC(C)=O)C(=O)N[C@@H](CCC(=O)O)C(=O)N[C@@H](Cc1c[nH]cn1)C(=O)N[C@H](Cc1ccccc1)C(=O)N[C@@H](CCCNC(=N)N)C(=O)N[C@@H](Cc1c[nH]c2ccccc12)C(N)=O` [MSH(7), Ac-Ser-Nle-Glu-His-D-Phe-Arg-Trp-NH2] (Ac-S[Nle]EH[dF]RW-NH2), the EC50 on hMC4R [1] is ~0.05 µM.
On hMC4R [1] (SEM), `CCCC[C@H](NC(=O)COCC(=O)NCCCOCCOCCOCCCNC(=O)[C@H](Cc1c[nH]c2ccccc12)NC(=O)[C@H](CCCNC(=N)N)NC(=O)[C@@H](Cc1ccccc1)NC(=O)[C@H](Cc1c[nH]cn1)NC(=O)[C@H](CCC(=O)O)NC(=O)[C@H](CCCC)NC(=O)[C@H](CO)NC(C)=O)C(=O)N[C@H]1CC(=O)NCCCC[C@@H](C(N)=O)NC(=O)[C@H](Cc2c[nH]c3ccccc23)NC(=O)[C@H](CCCNC(=N)N)NC(=O)[C@@H](Cc2ccc3ccccc3c2)NC(=O)[C@H](Cc2c[nH]cn2)NC1=O` [compound 17, Ac-MSH(7)-PEGO-SHU9119-NH2] had an EC50 of 0.00186 µM.

The EC50 is the midpoint of the concentration-response curve.

(Values after paper PMC4254589 (Bioorganic & medicinal chemistry, 2014).)
